According to DBAASP:
≈ marks a conversion by molar mass, not a printed value.

How the values were obtained:
Test in all cases: ≥ marks a high value that may be exact or a test limit, other limits are often not marked, values filed in µg/mL are converted to µM
Candida albicans = test system: Candida albicans
Escherichia coli = test system: Escherichia coli
Bacillus subtilis = test system: Bacillus subtilis
Staphylococcus aureus = test system: Staphylococcus aureus
[1] = test system: Pseudomonas aeruginosa ATCC 9027
[2] = test system: Staphylococcus aureus ATCC 6538
[3] = test system: Candida albicans ATCC 10231
[4] = test system: Bacillus subtilis ATCC 6633
[5] = test system: Escherichia coli ATCC 25922
[6] = test system: Staphylococcus aureus ATCC 25923
[7] = test system: Candida albicans ATCC 90028
[8] = test system: Staphylococcus aureus ATCC 33591
[9] = test system: Klebsiella pneumoniae ATCC 700603
Acinetobacter baumannii = test system: Acinetobacter baumannii
[10] = test system: Pseudomonas aeruginosa ATCC 27853
[11] = test system: Escherichia coli DH5alpha
[12] = test system: Staphylococcus epidermidis

## CC[C@H](C)[C@@H]1NC(=O)[C@H](CO)NC(=O)[C@H](CCCCN)NC(=O)[C@H]([C@@H](C)O)NC(=O)[C@H](Cc2c[nH]c3ccccc23)NC(=O)[C@@H](NC(=O)CNC(=O)[C@H](CCCCN)NC(=O)[C@H](CC(C)C)NC(=O)[C@H](C)NC(=O)[C@H](C)N)CSSC[C@@H](C(=O)N[C@@H](Cc2ccccc2)C(=O)NCC(=O)N[C@@H](CCCCN)C(=O)N[C@@H](CCCN=C(N)N)C(=O)O)NC(=O)[C@@H]2CCCN2C(=O)[C@H](CCCCN)NC(=O)[C@@H]2CCCN2C(=O)[C@@H]2CCCN2C1=O [AALKGCWTKSIPPKPCFGKR]
Candida albicans
  MIC: 1.1 µM (≈ 2.4 µg/mL)
Escherichia coli
  MIC: 1.47 µM (≈ 3.21 µg/mL)
Bacillus subtilis
  MIC: 0.845 µM (≈ 1.85 µg/mL)
Staphylococcus aureus
  MIC: 2.66 µM (≈ 5.82 µg/mL)

## CC(C)C[C@H](NC(=O)[C@H](C)NC(=O)[C@H](C)NC(=O)[C@H](CCCCN)NC(=O)[C@H](C)NC(=O)[C@H](CC(C)C)NC(=O)[C@H](CCCCN)NC(=O)[C@H](CCCCN)NC(=O)[C@H](C)NC(=O)[C@H](CC(C)C)NC(=O)[C@H](CCCCN)NC(=O)[C@H](CCCCN)NC(=O)[C@H](C)NC(=O)[C@@H](N)Cc1ccccc1)C(N)=O [FAKKLAKKLAKAAL]
[1]
  MIC: 66.6 µM (≈ 99.9 µg/mL)
[2]
  MIC: 6.66 µM (≈ 9.99 µg/mL)

## NCCCC[C@H](NC(=O)[C@H](CCCCN)NC(=O)[C@H](Cc1c[nH]c2ccccc12)NC(=O)[C@H](CCCCN)NC(=O)[C@H](Cc1ccccc1)NC(=O)[C@H](CCCN=C(N)N)NC(=O)[C@H](Cc1c[nH]c2ccccc12)NC(=O)[C@@H](N)CCCN=C(N)N)C(=O)O [RWRFKWKK]
[3]
  MIC: > 81 µM
[4]
  MIC: ≥ 81 µM
[5]
  MIC: > 81 µM
[6]
  MIC: > 81 µM

## CC[C@H](C)[C@H](NC(=O)[C@@H]1CCCN1C(=O)[C@H](CC(C)C)NC(=O)[C@@H](N)Cc1ccccc1)C(=O)N[C@@H](CC(C)C)C(=O)NCC(=O)N[C@@H](CCCCN)C(=O)N[C@@H](CC(C)C)C(=O)N[C@@H](CC(C)C)C(=O)N[C@@H](CO)C(=O)NCC(=O)N[C@@H](CC(C)C)C(=O)N[C@@H](CC(C)C)C(N)=O [FLPILGKLLSGLL]
[5]
  MIC: > 160 µM
[7]
  MIC: ≥ 80 µM
[6]
  MIC: 10 µM (≈ 13.8 µg/mL)

## CC[C@H](C)[C@H](NC(=O)[C@@H](N)CCCN=C(N)N)C(=O)N[C@@H](Cc1c[nH]c2ccccc12)C(=O)N[C@@H](Cc1ccccc1)C(=O)N[C@@H](CCC(N)=O)C(=O)N[C@@H](CC(N)=O)C(=O)N[C@@H](CCCN=C(N)N)C(=O)N[C@@H](CCCN=C(N)N)C(=O)N[C@@H](CCSC)C(=O)N[C@@H](CCCN=C(N)N)C(=O)N[C@@H](Cc1c[nH]c2ccccc12)C(=O)N[C@@H](CCCN=C(N)N)C(=O)N[C@@H](CCCN=C(N)N)C(N)=O [RIWFQNRRMRWRR]
[8]
  MIC: ≥ 32 µM
[5]
  MIC: 32 µM (≈ 62.7 µg/mL)

## CC[C@H](C)[C@H](N)C(=O)N[C@@H](CC(C)C)C(=O)N[C@@H](CCCCN)C(=O)N1CCC[C@H]1C(=O)N[C@@H](CCCCN)C(=O)N[C@@H](CC(C)C)C(=O)N[C@@H](Cc1c[nH]c2ccccc12)C(=O)N[C@@H](CCCCN)C(=O)N[C@@H](CC(C)C)C(=O)N[C@H](C(=O)N[C@H](C(=O)N[C@H](C(=O)N[C@@H](C)C(=O)N[C@@H](CCCN=C(N)N)C(=O)N[C@@H](CCCCN)C(=O)N[C@H](C(=O)N[C@H](C(=O)N[C@@H](CCCCN)C(=O)O)[C@@H](C)CC)[C@@H](C)CC)C(C)C)C(C)C)[C@@H](C)O [ILKPKLWKLTVVARKIIK]
[1]
  MIC: 64 µM (≈ 137 µg/mL)
[9]
  MIC: > 64 µM
[5]
  MIC: 64 µM (≈ 137 µg/mL)
Acinetobacter baumannii
  MIC: ≥ 64 µM
[6]
  MIC: > 64 µM

## N[C@@H](CC(=O)O)C(=O)N[C@@H](Cc1ccc(O)cc1)C(=O)N[C@@H](CC(=O)O)C(=O)N[C@@H](CC(=O)O)C(=O)O [DYDD]
[1]
  MIC: 17200 µM (≈ 9040 µg/mL)
[3]
  MIC: 8580 µM (≈ 4520 µg/mL)
[5]
  MIC: 34300 µM (≈ 18100 µg/mL)

## CC[C@H](C)[C@H](NC(=O)[C@H](CCCCN)NC(=O)[C@H](CS)NC(=O)[C@H](C)NC(=O)[C@@H](NC(=O)[C@H](Cc1ccccc1)NC(=O)CNC(=O)[C@H](CC(C)C)NC(=O)CNC(=O)[C@@H](NC(=O)[C@H](CCCCN)NC(=O)CNC(=O)[C@H](CC(C)C)NC(=O)[C@H](CC(N)=O)NC(=O)[C@H](CCCCN)NC(=O)[C@H](CC(C)C)NC(=O)[C@@H](NC(=O)CNC(=O)[C@H](CC(C)C)NC(=O)[C@H](CCSC)NC(=O)[C@@H](N)CO)C(C)C)C(C)C)C(C)C)C(=O)N[C@@H](CC(N)=O)C(=O)N[C@@H](CCCCN)C(=O)N[C@@H](CCC(N)=O)C(=O)N[C@@H](CS)C(=O)O [SMLGVLKNLGKVGLGFVACKINKQC]
Candida albicans
  MIC: 200 µM (≈ 524 µg/mL)
Escherichia coli
  MIC: 40 µM (≈ 105 µg/mL)
Staphylococcus aureus
  MIC: > 200 µM

## CC[C@H](C)[C@H](NC(=O)[C@H](Cc1ccccc1)NC(=O)[C@@H](NC(=O)[C@H](Cc1ccccc1)NC(=O)[C@H](CCCN=C(N)N)NC(=O)[C@H](CCCCN)NC(=O)[C@H](CCCN=C(N)N)NC(=O)[C@H](CCCCN)NC(=O)[C@H](Cc1c[nH]c2ccccc12)NC(=O)[C@H](CC(C)C)NC(=O)[C@@H](NC(=O)[C@@H](N)Cc1ccc(O)cc1)C(C)C)[C@@H](C)CC)C(=O)O [YVLWKRKRFIFI]
[10]
  MIC: 30 µM (≈ 50.1 µg/mL)
Bacillus subtilis
  MIC: 20 µM (≈ 33.4 µg/mL)
[11]
  MIC: 10 µM (≈ 16.7 µg/mL)
[6]
  MIC: 10 µM (≈ 16.7 µg/mL)

## CC[C@H](C)[C@H](NC(=O)[C@H](CCCN=C(N)N)NC(=O)[C@H](CC(C)C)NC(=O)[C@@H](NC(=O)[C@H](Cc1ccccc1)NC(=O)[C@H](CCCN=C(N)N)NC(=O)[C@H](C)NC(=O)[C@@H](N)CC(C)C)C(C)C)C(=O)N[C@@H](CC(C)C)C(=O)N[C@@H](CCCCN)C(=O)N[C@@H](Cc1ccc(O)cc1)C(=O)NCC(=O)N[C@@H](Cc1ccccc1)C(=O)N[C@@H](CCCCN)C(=O)O [LARFVLRILKYGFK]
[1]
  MIC: 64 µM (≈ 110 µg/mL)
[9]
  MIC: 64 µM (≈ 110 µg/mL)
[5]
  MIC: 64 µM (≈ 110 µg/mL)
Acinetobacter baumannii
  MIC: 8 µM (≈ 13.8 µg/mL)
[6]
  MIC: 32 µM (≈ 55.2 µg/mL)

## CC[C@H](C)[C@H](NC(=O)[C@H](CO)NC(=O)[C@@H](NC(=O)[C@H](CCCCN)NC(=O)[C@H](Cc1ccccc1)NC(=O)[C@@H]1CCCN1C(=O)[C@@H](N)[C@@H](C)O)[C@@H](C)CC)C(=O)N[C@@H](Cc1cnc[nH]1)C(=O)N[C@@H](CC(C)C)C(=O)NCC(=O)NCC(=O)N[C@@H](Cc1ccc(O)cc1)C(N)=O [TPFKISIHLGGY]
[12]
  MIC: ≥ 150 µM

## CC(C)C[C@H](NC(=O)[C@H](CCCCN)NC(=O)[C@H](CCCCN)NC(=O)[C@H](C)NC(=O)[C@H](CC(C)C)NC(=O)[C@H](CCCCN)NC(=O)[C@H](CCCCN)NC(=O)[C@H](CC(C)C)NC(=O)[C@H](CCCCN)NC(=O)[C@H](CCCCN)NC(=O)[C@H](C)NC(=O)[C@@H](N)Cc1ccccc1)C(N)=O [FAKKLKKLAKKL]
[1]
  MIC: 141 µM (≈ 200 µg/mL)
[2]
  MIC: 70.6 µM (≈ 99.9 µg/mL)

## CC(C)C[C@H](NC(=O)[C@H](CCCCN)NC(=O)[C@H](CCCCN)NC(=O)[C@H](C)NC(=O)[C@H](CC(C)C)NC(=O)[C@H](CCCCN)NC(=O)[C@H](CCCCN)NC(=O)[C@H](CC(C)C)NC(=O)[C@H](CCCCN)NC(=O)[C@H](CCCCN)NC(=O)[C@H](C)NC(=O)[C@H](CC(C)C)NC(=O)[C@H](CCCCN)NC(=O)[C@H](CCCCN)NC(=O)[C@H](C)NC(=O)[C@H](Cc1ccccc1)NC(=O)[C@H](CCCCN)NC(=O)[C@H](CCCCN)NC(=O)[C@H](Cc1ccccc1)NC(=O)[C@H](CC(C)C)NC(=O)[C@H](CCCCN)NC(=O)[C@@H](NC(=O)[C@@H](N)CCCCN)[C@@H](C)O)C(=O)O [KTKLFKKFAKKLAKKLKKLAKKL]
[1]
  MIC: 36.6 µM (≈ 100 µg/mL)
[2]
  MIC: 3.66 µM (≈ 10 µg/mL)

## CC[C@H](C)[C@H](NC(=O)[C@H](CCC(N)=O)NC(=O)[C@H](CC(C)C)NC(=O)[C@H](CCC(N)=O)NC(=O)[C@@H](NC(=O)[C@H](CCCCN)NC(=O)[C@H](Cc1ccccc1)NC(=O)[C@H](Cc1c[nH]c2ccccc12)NC(=O)[C@@H](N)CCCN=C(N)N)[C@@H](C)CC)C(=O)N[C@@H](CCCN=C(N)N)C(=O)N[C@@H](CCCN=C(N)N)C(=O)N[C@@H](Cc1c[nH]c2ccccc12)C(=O)N[C@@H](CCCCN)C(=O)N[C@@H](CC(N)=O)C(=O)N[C@@H](CCCCN)C(=O)N[C@@H](CCCCN)C(N)=O [RWFKIQLQIRRWKNKK]
[8]
  MIC: 16 µM (≈ 35.6 µg/mL)
[5]
  MIC: 32 µM (≈ 71.3 µg/mL)

## CC[C@H](C)[C@H](NC(=O)CNC(=O)[C@H](CO)NC(=O)[C@H](CC(C)C)NC(=O)[C@H](CC(C)C)NC(=O)CN)C(=O)N[C@@H](CC(C)C)C(=O)NCC(=O)N[C@@H](C)C(=O)NCC(=O)N[C@@H](CCCCN)C(=O)N[C@@H](Cc1cnc[nH]1)C(=O)N[C@H](C(=O)N[C@H](C(=O)N[C@@H](CS)C(=O)NCC(=O)N[C@@H](CC(C)C)C(=O)N[C@@H](CO)C(=O)NCC(=O)N[C@@H](CC(C)C)C(=O)N[C@@H](CCCN=C(N)N)C(=O)O)C(C)C)[C@@H](C)CC [GLLSGILGAGKHIVCGLSGLR]
Candida albicans
  MIC: 0.544 µM (≈ 1.1 µg/mL)
Escherichia coli
  MIC: 2.32 µM (≈ 4.68 µg/mL)
Bacillus subtilis
  MIC: 9.28 µM (≈ 18.8 µg/mL)
Staphylococcus aureus
  MIC: 4.64 µM (≈ 9.37 µg/mL)
